Reference: the supplement of paper PMC10307832

These cell lines were tested with CC1(C)CNc2cc(NC(=O)c3cccnc3NCc3ccncc3)ccc21 [Motesanib] + CS(=O)(=O)CCNCc1ccc(-c2ccc3ncnc(Nc4ccc(OCc5cccc(F)c5)c(Cl)c4)c3c2)o1 [Lapatinib] (partner 2 µM) (assay: relative viability (nuclei count vs DMSO), 5 days (fraction); higher = more cells survive). Details: first compound 0.01 µM.
Procedure, shortened: (§1)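 Relative viability was taken as the ratio of nuclei in treated wells to nuclei in vehicle wells. Lung cancer cell lines in 1536-well plates received compounds by pin tool one day after seeding, either one drug alone or a fixed anchor-drug dose plus five library-drug doses (not always all listed) in √10 steps. Nuclei were counted on 4× images after 5 days of treatment, and values are medians of duplicate plates.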
NCI-H727 showed a relative viability of 0.821.
Cell Line NCI-H1650 has a relative viability of 0.807.
With EBC-1 the relative viability was 0.268.
For NCI-H1703, the relative viability was 1.05.
Cell Line NCI-H1993 has a relative viability of 0.884.
For SW 1573, the relative viability was 1.16.
NCI-H838 showed a relative viability of 0.98.
In the case of NCI-H520, the relative viability is reported as 0.714.
In the case of Calu-6, the relative viability is reported as 1.06.
For IA-LM, the relative viability was 0.88.
With NCI-H2170 the relative viability was 0.243.
In the case of A549, the relative viability is reported as 0.965.
NCI-H1395 gave a relative viability of 0.925.
With NCI-H1299 the relative viability was 0.958.
Cell Line NCI-H1793 has a relative viability of 0.858.

Same assay, conditions: first compound 0.03162 µM
For NCI-H727, the relative viability was 0.902.
In the case of EBC-1, the relative viability is reported as 0.206.
NCI-H1703 showed a relative viability of 0.679.
Cell Line NCI-H1993 has a relative viability of 0.893.
SW 1573 was tested, and the relative viability was 1.09.
With NCI-H838 the relative viability was 1.03.
NCI-H520 was tested, and the relative viability was 0.823.
Calu-6 showed a relative viability of 1.05.
Work on IA-LM yielded a relative viability of 0.723.
In the case of NCI-H2170, the relative viability is reported as 0.282.
In the case of A549, the relative viability is reported as 0.975.
Work on NCI-H1395 yielded a relative viability of 1.03.
Cell Line NCI-H1299 has a relative viability of 0.979.
NCI-H1793 showed a relative viability of 0.636.

Same assay, conditions: first compound 0.1 µM
For NCI-H727, the relative viability was 0.858.
NCI-H1650 was tested, and the relative viability was 0.667.
EBC-1 gave a relative viability of 0.223.
Cell Line NCI-H1703 has a relative viability of 0.526.
NCI-H1993 showed a relative viability of 0.801.
Work on SW 1573 yielded a relative viability of 1.
Cell Line NCI-H838 has a relative viability of 0.914.
Cell Line NCI-H520 has a relative viability of 0.877.
Work on Calu-6 yielded a relative viability of 1.02.
For IA-LM, the relative viability was 0.703.
With NCI-H2170 the relative viability was 0.228.
With A549 the relative viability was 0.989.
For NCI-H1395, the relative viability was 1.04.
Cell Line NCI-H1299 has a relative viability of 0.995.
Work on NCI-H1793 yielded a relative viability of 0.64.

Same assay, conditions: first compound 0.3162 µM
In the case of NCI-H727, the relative viability is reported as 1.13.
NCI-H1650 was tested, and the relative viability was 0.723.
With EBC-1 the relative viability was 0.211.
In the case of NCI-H1703, the relative viability is reported as 0.334.
Cell Line NCI-H1993 has a relative viability of 0.867.
In the case of SW 1573, the relative viability is reported as 0.929.
NCI-H838 gave a relative viability of 1.19.
With NCI-H520 the relative viability was 0.882.
For Calu-6, the relative viability was 0.997.
IA-LM was tested, and the relative viability was 0.645.
Work on NCI-H2170 yielded a relative viability of 0.262.
A549 showed a relative viability of 1.09.
With NCI-H1395 the relative viability was 1.08.
With NCI-H1299 the relative viability was 1.01.
NCI-H1793 gave a relative viability of 0.701.

Same assay, conditions: first compound 1 µM
Work on NCI-H727 yielded a relative viability of 0.787.
NCI-H1650 gave a relative viability of 0.735.
In the case of EBC-1, the relative viability is reported as 0.223.
NCI-H1703 was tested, and the relative viability was 0.323.
NCI-H1993 was tested, and the relative viability was 0.638.
Cell Line SW 1573 has a relative viability of 1.33.
NCI-H838 gave a relative viability of 1.02.
For NCI-H520, the relative viability was 0.899.
With Calu-6 the relative viability was 0.999.
In the case of IA-LM, the relative viability is reported as 0.729.
NCI-H2170 gave a relative viability of 0.293.
Work on A549 yielded a relative viability of 0.955.
NCI-H1395 showed a relative viability of 0.959.
NCI-H1299 was tested, and the relative viability was 0.935.
For NCI-H1793, the relative viability was 0.773.

What follows are cell lines tested with CC1(C)CNc2cc(NC(=O)c3cccnc3NCc3ccncc3)ccc21 [Motesanib] + C[C@@H](Oc1cc(-c2cnn(C3CCNCC3)c2)cnc1N)c1c(Cl)ccc(F)c1Cl [Crizotinib] (partner 1 µM) in the same assay as above. Details: first compound 0.01 µM.
Procedure, shortened: as §1
NCI-H727 showed a relative viability of 0.96.
With NCI-H1650 the relative viability was 0.91.
Work on EBC-1 yielded a relative viability of 0.178.
Cell Line NCI-H1703 has a relative viability of 0.826.
Cell Line NCI-H1993 has a relative viability of 0.964.
SW 1573 showed a relative viability of 0.686.
Cell Line NCI-H838 has a relative viability of 0.908.
With NCI-H520 the relative viability was 0.665.
Cell Line Calu-6 has a relative viability of 0.794.
Cell Line IA-LM has a relative viability of 0.829.
Work on NCI-H2170 yielded a relative viability of 1.16.
Cell Line A549 has a relative viability of 0.741.
NCI-H441 was tested, and the relative viability was 0.596.
NCI-H1299 was tested, and the relative viability was 0.938.

Same assay, conditions: first compound 0.03162 µM
In the case of NCI-H727, the relative viability is reported as 0.839.
EBC-1 gave a relative viability of 0.19.
For NCI-H1703, the relative viability was 0.545.
NCI-H1993 showed a relative viability of 0.848.
SW 1573 gave a relative viability of 0.887.
In the case of NCI-H838, the relative viability is reported as 0.856.
LCLC-103H showed a relative viability of 1.13.
With NCI-H520 the relative viability was 0.792.
Work on Calu-6 yielded a relative viability of 0.744.
With IA-LM the relative viability was 0.745.
With ChaGo-K-1 the relative viability was 1.16.
For NCI-H2170, the relative viability was 1.19.
A549 was tested, and the relative viability was 0.663.
Work on NCI-H441 yielded a relative viability of 0.785.
NCI-H1299 was tested, and the relative viability was 0.978.

Same assay, conditions: first compound 0.1 µM
NCI-H727 was tested, and the relative viability was 0.786.
NCI-H1650 was tested, and the relative viability was 0.975.
For EBC-1, the relative viability was 0.205.
In the case of NCI-H1703, the relative viability is reported as 0.303.
NCI-H1993 showed a relative viability of 0.842.
Work on SW 1573 yielded a relative viability of 0.913.
NCI-H838 was tested, and the relative viability was 0.903.
In the case of LCLC-103H, the relative viability is reported as 0.986.
Work on NCI-H520 yielded a relative viability of 0.697.
For Calu-6, the relative viability was 0.78.
Work on IA-LM yielded a relative viability of 1.21.
For ChaGo-K-1, the relative viability was 1.1.
In the case of NCI-H2170, the relative viability is reported as 1.15.
A549 showed a relative viability of 0.746.
In the case of NCI-H441, the relative viability is reported as 1.02.
Cell Line NCI-H1299 has a relative viability of 0.951.

Same assay, conditions: first compound 0.3162 µM
With NCI-H727 the relative viability was 0.808.
NCI-H1650 gave a relative viability of 0.93.
In the case of EBC-1, the relative viability is reported as 0.193.
In the case of NCI-H1703, the relative viability is reported as 0.155.
NCI-H1993 showed a relative viability of 0.824.
Cell Line SW 1573 has a relative viability of 0.746.
In the case of NCI-H838, the relative viability is reported as 0.899.
Work on LCLC-103H yielded a relative viability of 1.08.
Work on NCI-H520 yielded a relative viability of 0.662.
Calu-6 showed a relative viability of 0.758.
In the case of IA-LM, the relative viability is reported as 0.729.
ChaGo-K-1 was tested, and the relative viability was 1.18.
With NCI-H2170 the relative viability was 1.13.
In the case of A549, the relative viability is reported as 0.754.
NCI-H441 gave a relative viability of 0.846.
Work on NCI-H1299 yielded a relative viability of 0.949.

Same assay, conditions: first compound 1 µM
With NCI-H727 the relative viability was 0.723.
Work on NCI-H1650 yielded a relative viability of 1.02.
Cell Line EBC-1 has a relative viability of 0.181.
NCI-H1703 showed a relative viability of 0.172.
With NCI-H1993 the relative viability was 0.865.
Work on SW 1573 yielded a relative viability of 0.973.
In the case of NCI-H838, the relative viability is reported as 0.878.
Cell Line LCLC-103H has a relative viability of 1.15.
For NCI-H520, the relative viability was 0.725.
Work on Calu-6 yielded a relative viability of 0.783.
